Assay results reported in ChEMBL document CHEMBL2346624, “Pyrrolopyrazines as selective spleen tyrosine kinase inhibitors” (J Med Chem, 2013).
Converted amounts (≈) assume the structure as drawn.

Key:
[1] = Metabolic stability in rat liver microsomes; assay type: ADME, Microsome; conditions: read-out: Stability
[2] = system: Liver microsomes; assay: Metabolic stability in human liver microsomes assessed as GSH adduct formation; assay type: ADME, Microsome
[3] = Aqueous solubility of the compound by lyophilisate solubility assay; assay type: physicochemical; conditions: buffer
[4] = Metabolic stability in human liver microsomes; assay type: ADME, Microsome; conditions: read-out: Stability

Structure (SMILES)	CLhep predicted [1] [mL/min/kg]	Stability [2]	solubility [3] [µg/mL]	CLhep predicted [4] [mL/min/kg]
NC(=O)c1cnc(N[C@@H]2CCCC[C@@H]2N)nc1Nc1cccc(-n2nccn2)c1	10	Stable	< 1	3
COc1ccc(Nc2nc(-c3cccc(C(=O)Nc4ccc(C(=O)O)cc4)c3)nc3scnc23)cc1OC	–	–	< 1	–
Cn1nc(-c2cnc3[nH]cc(C(=O)NC(C)(C)C)c3n2)c2cc(OC(F)F)ccc21	51	–	< 1	18
CC(C)(C)NC(=O)c1c[nH]c2ncc(-c3n[nH]c4ccc(OC(F)F)cc34)nc12	30	Stable	< 1	10
CC(C)(C)NC(=O)c1c[nH]c2ncc(-c3n[nH]c4c(CO)cccc34)nc12	51	–	< 1	7
CN(C)CCCn1nc(-c2cnc3[nH]cc(C(=O)NC(C)(C)C)c3n2)c2cc(OC(F)F)ccc21	46	Stable	< 1	9
CN(C)CCCn1nc(-c2cnc3[nH]cc(C(=O)NC(C)(C)CO)c3n2)c2cc(OC(F)F)ccc21	41	–	586 (≈ 1170 µM)	12
CC(C)(C)NC(=O)c1c[nH]c2ncc(-c3nn(CCC(O)CO)c4ccc(OC(F)F)cc34)nc12 (stereo unspecified)	49	–	< 1	8
CC(C)(C)NC(=O)c1c[nH]c2ncc(-c3nn(CCCS(C)(=O)=O)c4cc(F)ccc34)nc12	43	–	< 1	8
CC(C)(C)NC(=O)c1c[nH]c2ncc(-c3nn(CCC(O)CO)c4cc(F)ccc34)nc12 (stereo unspecified)	23	–	< 1	4
CC(C)(C)NC(=O)c1c[nH]c2ncc(-c3nn(C4CCNCC4)c4cc(F)ccc34)nc12	6	Stable	< 1	3
CC(C)NC(=O)c1c[nH]c2ncc(-c3nn(C)c4c3CC(C)(C)CC4)nc12	50	–	< 1	19
COc1ccc2cnn(-c3cnc4[nH]cc(C(=O)NC(C)(C)C)c4n3)c2c1	37	–	< 1	11
CC(C)(CO)NC(=O)c1c[nH]c2ncc(-n3ncc4ccc(Cl)cc43)nc12	35	Stable	< 1	14
C[C@@H](CO)NC(=O)c1c[nH]c2ncc(-c3nn(C)c4cc(Cl)ccc34)nc12	47	Stable	< 1	16
Cn1nc(-c2cnc3[nH]cc(C(=O)N[C@H]4C[C@H](O)C4)c3n2)c2ccc(F)cc21	43	–	< 1	17
COc1cc(Nc2ncc(F)c(Nc3ccc4c(n3)N(COP(=O)(O)O)C(=O)C(C)(C)O4)n2)cc(OC)c1OC [FOSTAMATINIB]	47	Unstable	< 1	18
